Source: PubChem BioAssay AID1963843 (Molecular Pharmacology Branch, DTP, NCI, 2024)

System: 616215-338-R-J1-PDC complex spheroid viability
Test: Anticancer human tumor 616215-338-R-J1-PDC patient-derived colon adenocarcinoma cell line growth inhibition [POLQ]
Conditions: for IC50: curve of first compound; for viability, T/C: stronger effect = lower value; active = viability on the fitted dose curve at most 10% of control; inactive = the rest
Description: Multicellular complex tumor spheroid response to Polymerase (POL) inhibitors (novobiocin, ART-558, RP6685) in combination with a variety of drugs and investigational agents in selected tumor cell lines
The POL inhibitors (novobiocin, ART-558, and RP6685) were evaluated both individually and in combination with standard of care and investigational anticancer small molecules within a complex spheroid model of solid tumors. . Complex spheroids include a stromal component modeled by human endothelial cells (HUVEC) and fibroblasts modeled by human mesenchymal stem cells (MSCs). The concentration ranges selected for each drug and investigational agent were based upon clinically achievable concentrations if the clinical Cmax of the agent was known.
Compounds. The drugs and investigational agents: novobiocin (NSC847541), ART-558 (NSC835418), RP-6685 (NSC848927), peposertib (NSC802822), ceralasertib (NSC780249), elimusertib (NSC800525), camonsertib (NSC841442), AZD-1390 (NSC803789), olaparib (NSC753686), talazoparib (NSC767125), rucaparib (NSC756644), sotorasib (NSC818433), MRTX-1133 (NSC836407), SN-38 (NSC673596), topotecan (NSC609699), epotoside (NSC141540), doxorubicin (NSC123127), gemcitabine (NSC613327), 5-fluorouracil (NSC19893), paclitaxel (NSC125973), vemurafenib (NSC761431), MSA-2 (NSC828583), SN-011 (NSC837082), adavosertib (NSC754352), prexasertib (NSC758257), carboplatin (NSC241240) and oxaliplatin (NSC266046), were obtained from the National Cancer Institute (NCI) Developmental Therapeutics Program Chemical Repository (21). The FDA-approved anticancer drug set is available from the Developmental Therapeutics Program at https://dtp.cancer.gov/organization/dscb/obtaining/. […] The stock solutions were prepared in dimethyl sulfoxide (DMSO, Sigma-Aldrich, St. Louis, MO, cat. D2650), except for the platinum compounds which were prepared in saline (Quality Biological, Gaithersburg, MD, cat. 114-055-101), at 800-fold the tested concentration and stored at -70 degrees C prior to their use. All drugs and investigational agents were tested over a range starting from a high concentration at or near the clinical Cmax and decreasing in half-log increments. If the clinical Cmax for an agent had not been determined, the highest concentration tested was 10 microM, except for SN-38, which was tested at a high concentration of 1 microM.
Cell Culture. All cells were maintained in an incubator at 37 degrees C and 5% CO2 with 95% humidity. The PDC lines were cultured according to standard operating procedures established by the NCI PDMR (https://pdmr.cancer.gov). Table 3 of the manuscript, lists the cell lines along with the number of the three cell types plated to form the mct-spheroids and media for tumor cell growth. After thawing, all PDC lines, except 997537-175-T-J1-PDC and 415267-285-R-J2-PDC, were cultured in Matrigel-coated flasks prepared with a working solution of 1X Ham's F-12 nutrient mix, without supplementation (Thermo Fisher Scientific, cat. 11765054), 100 U/mL penicillin-streptomycin (Thermo Fisher Scientific, cat. 15140122), and 2.5% Matrigel (Corning Inc., Corning, NY, cat. 354248) for the first three passages. The two PDC lines 997537-175-T-J1-PDC and 415267-285-R-J2-PDC were cultured on uncoated flasks. The 857933-349-R-J2-PDC line was cultured in 6C/Colon 1B media containing advanced DMEM/F-12 (Thermo Fisher Scientific, cat. 12634028), 10 mM HEPES (Thermo Fisher Scientific, cat. 15630080), 1X GlutaMAX supplement (Thermo Fisher Scientific, cat. 35050061), 0.1 mg/mL primocin (InvivoGen, San Diego, CA, cat. ant-pm-2), 10% defined fetal bovine serum, heat inactivated (HyClone Laboratories Inc., Logan, UT, cat. SH30070.03HI), 50% L-WRN conditioned media (ATCC, cat. CRL-3276), 1.25 mM N-Acetyl-L-cysteine (Sigma-Aldrich, cat. A9165), 10 mM nicotinamide (Sigma-Aldrich, cat. N0636), 1X B-27 supplement (Thermo Fisher Scientific, cat. 17504044), 1X N-2 supplement (Thermo Fisher Scientific, cat. […]
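Note: spheroids exposed to compounds for one week before readout.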
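Throughout, for viability, T/C: percent viability relative to DMSO vehicle wells taken as 100%.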

CC(=O)O[C@H]1C(=O)[C@@]2(C)[C@H]([C@H](OC(=O)c3ccccc3)[C@]3(O)C[C@H](OC(=O)[C@H](O)[C@@H](NC(=O)c4ccccc4)c4ccccc4)C(C)=C1C3(C)C)[C@]1(OC(C)=O)CO[C@@H]1C[C@@H]2O + COC1C(OC(N)=O)C(O)C(Oc2ccc3c(O)c(NC(=O)c4ccc(O)c(CC=C(C)C)c4)c(=O)oc3c2C)OC1(C)C
0.0293 µM: IC50 (second compound 3.16 µM)
0.0252 µM: IC50 (second compound 0.316 µM)
0.0418 µM: IC50 (second compound 0.0316 µM)
inactive: viability, T/C (second compound 0.0316 µM, first compound 0.00949 µM) 76.1% | viability, T/C (second compound 0.0316 µM, first compound 0.03 µM) 52.6% | viability, T/C (second compound 0.0316 µM, first compound 0.0949 µM) 41% | viability, T/C (second compound 0.0316 µM, first compound 0.3 µM) 38.6% | viability, T/C (second compound 0.0316 µM, first compound 0.949 µM) 34.3% | viability, T/C (second compound 0.0316 µM, first compound 3 µM) 30.5% | viability, T/C (second compound 0.1 µM, first compound 0.00949 µM) 89.7% | viability, T/C (second compound 0.1 µM, first compound 0.03 µM) 54% | viability, T/C (second compound 0.1 µM, first compound 0.0949 µM) 42.5% | viability, T/C (second compound 0.1 µM, first compound 0.3 µM) 35.3% | viability, T/C (second compound 0.1 µM, first compound 0.949 µM) 37.1% | viability, T/C (second compound 0.1 µM, first compound 3 µM) 32.6% | viability, T/C (second compound 0.316 µM, first compound 0.00949 µM) 97.3% | viability, T/C (second compound 0.316 µM, first compound 0.03 µM) 41.5% | viability, T/C (second compound 0.316 µM, first compound 0.0949 µM) 40.4% | viability, T/C (second compound 0.316 µM, first compound 0.3 µM) 38.3% | viability, T/C (second compound 0.316 µM, first compound 0.949 µM) 38.5% | viability, T/C (second compound 0.316 µM, first compound 3 µM) 31.8% | viability, T/C (second compound 1 µM, first compound 0.00949 µM) 96.5% | viability, T/C (second compound 1 µM, first compound 0.03 µM) 44.1% | viability, T/C (second compound 1 µM, first compound 0.0949 µM) 37.1% | viability, T/C (second compound 1 µM, first compound 0.3 µM) 33.4% | viability, T/C (second compound 1 µM, first compound 0.949 µM) 31.4% | viability, T/C (second compound 1 µM, first compound 3 µM) 31.7% | viability, T/C (second compound 3.16 µM, first compound 0.00949 µM) 84.2% | viability, T/C (second compound 3.16 µM, first compound 0.03 µM) 48.2% | viability, T/C (second compound 3.16 µM, first compound 0.0949 µM) 40.8% | viability, T/C (second compound 3.16 µM, first compound 0.3 µM) 31.4% | viability, T/C (second compound 3.16 µM, first compound 0.949 µM) 36.1% | viability, T/C (second compound 3.16 µM, first compound 3 µM) 32.2% | viability, T/C (second compound 10 µM, first compound 0.00949 µM) 87.6% | viability, T/C (second compound 10 µM, first compound 0.03 µM) 48.3% | viability, T/C (second compound 10 µM, first compound 0.0949 µM) 42.2% | viability, T/C (second compound 10 µM, first compound 0.3 µM) 34.2% | viability, T/C (second compound 10 µM, first compound 0.949 µM) 32.7% | viability, T/C (second compound 10 µM, first compound 3 µM) 36.5%
0.0298 µM: IC50 (second compound 10 µM)
0.0269 µM: IC50 (second compound 1 µM)
0.0454 µM: IC50 (second compound 0.1 µM)

CCCS(=O)(=O)Nc1ccc(F)c(C(=O)c2c[nH]c3ncc(-c4ccc(Cl)cc4)cc23)c1F + COC1C(OC(N)=O)C(O)C(Oc2ccc3c(O)c(NC(=O)c4ccc(O)c(CC=C(C)C)c4)c(=O)oc3c2C)OC1(C)C
6.01 µM: IC50 (second compound 3.16 µM)
5.82 µM: IC50 (second compound 10 µM)
5.9 µM: IC50 (second compound 0.1 µM)
6.22 µM: IC50 (second compound 0.0316 µM)
5.7 µM: IC50 (second compound 0.316 µM)
inactive: viability, T/C (second compound 0.0316 µM, first compound 0.0316 µM) 99.9% | viability, T/C (second compound 0.0316 µM, first compound 0.1 µM) 99.7% | viability, T/C (second compound 0.0316 µM, first compound 0.316 µM) 100% | viability, T/C (second compound 0.0316 µM, first compound 1 µM) 108% | viability, T/C (second compound 0.0316 µM, first compound 3.16 µM) 97.1% | viability, T/C (second compound 0.0316 µM, first compound 10 µM) 16.8% | viability, T/C (second compound 0.1 µM, first compound 0.0316 µM) 98.2% | viability, T/C (second compound 0.1 µM, first compound 0.1 µM) 116% | viability, T/C (second compound 0.1 µM, first compound 0.316 µM) 102% | viability, T/C (second compound 0.1 µM, first compound 1 µM) 107% | viability, T/C (second compound 0.1 µM, first compound 3.16 µM) 91.1% | viability, T/C (second compound 0.1 µM, first compound 10 µM) 15.2% | viability, T/C (second compound 0.316 µM, first compound 0.0316 µM) 109% | viability, T/C (second compound 0.316 µM, first compound 0.1 µM) 113% | viability, T/C (second compound 0.316 µM, first compound 0.316 µM) 95.8% | viability, T/C (second compound 0.316 µM, first compound 1 µM) 99.7% | viability, T/C (second compound 0.316 µM, first compound 3.16 µM) 83.8% | viability, T/C (second compound 0.316 µM, first compound 10 µM) 18.9% | viability, T/C (second compound 1 µM, first compound 0.0316 µM) 113% | viability, T/C (second compound 1 µM, first compound 0.1 µM) 103% | viability, T/C (second compound 1 µM, first compound 0.316 µM) 96.7% | viability, T/C (second compound 1 µM, first compound 1 µM) 105% | viability, T/C (second compound 1 µM, first compound 3.16 µM) 86.4% | viability, T/C (second compound 1 µM, first compound 10 µM) 14.1% | viability, T/C (second compound 3.16 µM, first compound 0.0316 µM) 96.6% | viability, T/C (second compound 3.16 µM, first compound 0.1 µM) 99.7% | viability, T/C (second compound 3.16 µM, first compound 0.316 µM) 98.1% | viability, T/C (second compound 3.16 µM, first compound 1 µM) 107% | viability, T/C (second compound 3.16 µM, first compound 3.16 µM) 91.3% | viability, T/C (second compound 3.16 µM, first compound 10 µM) 16.9% | viability, T/C (second compound 10 µM, first compound 0.0316 µM) 106% | viability, T/C (second compound 10 µM, first compound 0.1 µM) 97.8% | viability, T/C (second compound 10 µM, first compound 0.316 µM) 104% | viability, T/C (second compound 10 µM, first compound 1 µM) 93% | viability, T/C (second compound 10 µM, first compound 3.16 µM) 89.9% | viability, T/C (second compound 10 µM, first compound 10 µM) 15.8%
5.66 µM: IC50 (second compound 1 µM)
